Experimental data as given in patent US20220387457A1 (Qlaris Bio, Inc., priority 2020, published 2022).

Test: Toxicokinetics after escalating intravenous doses of CKLP1 in beagles
Format: in vivo, beagle dog
Set-up: AUCTlast/Dose: unit not given here
Settings: for RAUC / Tlast / Tmax / Vd / clearance / half-life / λZ range / AUC(0-inf) / AUC(0-t) / C0 / Cmax: beagle, dog, in vivo, iv; for AUCTlast/Dose / Cmax/Dose: male dog
Method: Two beagles (one male and one female) were intravenously injected with escalating doses of CKPL1 (0.05 mg/kg, 0.5 mg/kg, 1.5 mg/kg, 3 mg/kg, and 5 mg/kg) to assess the toxicity of CKLP1. The injection was done through the cephalic vein and CKLP1 was administered in a phosphate buffered saline solution ((0.096% sodium phosphate dibasic, 0.089% sodium dihydrogen orthophosphate monohydrate, 0.83% sodium chloride) pH 6.5±0.1 in sterile water for injection USP). The dosing schedule is shown below in Table 3.
The following parameters and endpoints were evaluated: mortality, clinical observations, body and organ weights, and food consumption. Bioanalytical samples for toxicokinetic parameters (for both CKLP1 and leveromakalim) were collected after each dose level (days 1, 3, 8, 10, and 14) at predose, 1, 3, 6, 8, and 24 hours postdose. Animals were released from the study after completion of the bioanalytical sample collection schedule.
Toxicokinetics (TK) were determined based on the individual exposures for each animal on each sampled study day (days 1, 3, 8, 10, and 14). […] Predose samples had no quantifiable exposure in any animal on any day, with the exception of the female dog on day 10. The predose concentration for the female dog on day 10 was excluded from the TK analysis in order to allow for estimation of the IV C0.

[1] = IV CKLP1 0.05 mg/kg, study day 1
[2] = IV CKLP1 0.5 mg/kg, study day 3
[3] = IV CKLP1 1.5 mg/kg, study day 8

CC1(C)Oc2ccc(C#N)cc2[C@@H](N2CCCC2=O)[C@@H]1OP(=O)(O)O [CKLP1]
RAUC (female, 1.5 mg/kg): 29.1 | Tlast (female, 1.5 mg/kg): 24.0 h | Tmax (female, 1.5 mg/kg): 1 h | Vd (female, 1.5 mg/kg): 0.162 L/kg | clearance (female, 1.5 mg/kg): 0.4 mL/min/kg | half-life (female, 1.5 mg/kg): 4.68 h | λZ range (female, 1.5 mg/kg): 6 to 24 h | AUC(0-inf) (female, 3 mg/kg): 129000 ng·h/mL | AUC(0-t) (female, 3 mg/kg): 128000 ng·h/mL | C0 (female, 3 mg/kg): 22.7 µg/mL | Cmax (female, 3 mg/kg): 18.4 µg/mL | RAUC (female, 3 mg/kg): 61.0 | Tlast (female, 3 mg/kg): 24.0 h | Tmax (female, 3 mg/kg): 1 h | Vd (female, 3 mg/kg): 0.099 L/kg | clearance (female, 3 mg/kg): 0.388 mL/min/kg | half-life (female, 3 mg/kg): 2.94 h | λZ range (female, 3 mg/kg): 6 to 24 h | AUC(0-inf) (female, 5 mg/kg): 330000 ng·h/mL | AUC(0-t) (female, 5 mg/kg): 311000 ng·h/mL | C0 (female, 5 mg/kg): 32.2 µg/mL | Cmax (female, 5 mg/kg): 29.3 µg/mL | RAUC (female, 5 mg/kg): 148 | Tlast (female, 5 mg/kg): 24.0 h | Tmax (female, 5 mg/kg): 1 h | Vd (female, 5 mg/kg): 0.131 L/kg | clearance (female, 5 mg/kg): 0.253 mL/min/kg | half-life (female, 5 mg/kg): 5.98 h | λZ range (female, 5 mg/kg): 3 to 24 h | AUCTlast/Dose [1]: 22400 | Cmax/Dose [1]: 4.9e+06 µg/mL | AUCTlast/Dose [2]: 28500 | Cmax/Dose [2]: 5.2e+06 µg/mL | AUCTlast/Dose [3]: 28800 | Cmax/Dose [3]: 5.13e+06 µg/mL | AUCTlast/Dose (IV CKLP1 3 mg/kg, study day 10): 28400 | Cmax/Dose (IV CKLP1 3 mg/kg, study day 10): 4.8e+06 µg/mL | AUCTlast/Dose (IV CKLP1 5 mg/kg, study day 14): 31700 | Cmax/Dose (IV CKLP1 5 mg/kg, study day 14): 4.48e+06 µg/mL | AUC(0-inf) (male, 0.05 mg/kg): 1230 ng·h/mL | AUC(0-t) (male, 0.05 mg/kg): 1120 ng·h/mL | C0 (male, 0.05 mg/kg): 0.301 µg/mL | Cmax (male, 0.05 mg/kg): 0.245 µg/mL | Tlast (male, 0.05 mg/kg): 8.00 h | Tmax (male, 0.05 mg/kg): 1 h | Vd (male, 0.05 mg/kg): 0.131 L/kg | clearance (male, 0.05 mg/kg): 0.678 mL/min/kg | half-life (male, 0.05 mg/kg): 2.23 h | λZ range (male, 0.05 mg/kg): 3 to 8 h | AUC(0-inf) (male, 0.5 mg/kg): 14300 ng·h/mL | AUC(0-t) (male, 0.5 mg/kg): 14300 ng·h/mL | C0 (male, 0.5 mg/kg): 3.58 µg/mL | Cmax (male, 0.5 mg/kg): 2.6 µg/mL | RAUC (male, 0.5 mg/kg): 12.8 | Tlast (male, 0.5 mg/kg): 24.0 h | Tmax (male, 0.5 mg/kg): 1 h | Vd (male, 0.5 mg/kg): 0.143 L/kg | clearance (male, 0.5 mg/kg): 0.583 mL/min/kg | half-life (male, 0.5 mg/kg): 2.84 h | λZ range (male, 0.5 mg/kg): 3 to 24 h | AUC(0-inf) (male, 1.5 mg/kg): 43300 ng·h/mL | AUC(0-t) (male, 1.5 mg/kg): 43200 ng·h/mL | C0 (male, 1.5 mg/kg): 10.4 µg/mL | Cmax (male, 1.5 mg/kg): 7.69 µg/mL | RAUC (male, 1.5 mg/kg): 38.6 | Tlast (male, 1.5 mg/kg): 24.0 h | Tmax (male, 1.5 mg/kg): 1 h | Vd (male, 1.5 mg/kg): 0.146 L/kg | clearance (male, 1.5 mg/kg): 0.578 mL/min/kg | half-life (male, 1.5 mg/kg): 2.91 h | λZ range (male, 1.5 mg/kg): 1 to 24 h | AUC(0-inf) (male, 3 mg/kg): 89000 ng·h/mL | AUC(0-t) (male, 3 mg/kg): 85100 ng·h/mL | C0 (male, 3 mg/kg): 18.5 µg/mL | Cmax (male, 3 mg/kg): 14.4 µg/mL | RAUC (male, 3 mg/kg): 76.0 | Tlast (male, 3 mg/kg): 24.0 h | Tmax (male, 3 mg/kg): 1 h | Vd (male, 3 mg/kg): 0.303 L/kg | clearance (male, 3 mg/kg): 0.562 mL/min/kg | half-life (male, 3 mg/kg): 6.22 h | λZ range (male, 3 mg/kg): 6 to 24 h | AUC(0-inf) (male, 5 mg/kg): 160000 ng·h/mL | AUC(0-t) (male, 5 mg/kg): 159000 ng·h/mL | C0 (male, 5 mg/kg): 25.9 µg/mL | Cmax (male, 5 mg/kg): 22.4 µg/mL | RAUC (male, 5 mg/kg): 142 | Tlast (male, 5 mg/kg): 24.0 h | Tmax (male, 5 mg/kg): 1 h | Vd (male, 5 mg/kg): 0.156 L/kg | clearance (male, 5 mg/kg): 0.522 mL/min/kg | half-life (male, 5 mg/kg): 3.47 h | λZ range (male, 5 mg/kg): 1 to 24 h
